Measurements taken from patent US20230248775A1, “GENETIC MODIFICATION OF MAMMALIAN CELLS TO CONFER RESISTANCE TO CSF1R ANTAGONISTS” (THE REGENTS OF THE UNIVERSITY OF CALIFORNIA, priority 2021, published 2023).
Entries after “also recorded” stand apart in the source; their conditions may differ.

Key:
G795A iPSC-microglia [1] = assay: LIVE/DEAD two-color viability/cytotoxicity, G795A microglia; assay type: cell-based, human; conditions: 500 nM or 1 uM, 24 hours
Procedure: (§1) FIGS. 5A and 5B show G795A iPSC-derived microglia are resistant to CSF1R antagonist-induced cell death. As cells can die from processes other than caspase-mediated apoptosis, it is important to determine whether the G795A mutation provides a more broad-based resistance to any form of cell death induced by CSF1R antagonists, Therefore, G795A and wild-type (WT) iPSC-microglia were treated for 24 hours with either 500 nM (FIG, 5A) or 1 uM (FIG. 5B) of DMSO vehicle control or one of four CSF1R antagonists; PLX3397, PLX5622, Edicotinib, and BLZ945. The percent of live versus dead cells was then quantified using a two-color viability/cytotoxicity approach (Thermo L3224; LIVE/DEAD™ Viability/Cytotoxicity Kit). Very few dead microglia are observed 24 hours after treatment with DMSO. […] Live cells are denoted with a circle, […]

G795A iPSC-microglia [2] = assay: Cell death assay (fluorogenic caspase 3/7, IncuCyte time-lapse imaging), G795A microglia; assay type: cell-based, human; conditions: 250 nM, 500 nM, 1 μm, 24 hours, compared to DMSO control
Excerpt: (§2) FIGS. 4A, 4B, 4C, 4D, and 4E show human stem cell-derived microglia are also susceptible to and killed by CSF1R inhibition in vitro. […] Images captured on Incucyte S3 live-cell imager. […] Images captured on Incucyte S3 live-cell imager. […] Images captured on Incucyte S3 live-cell imager. […] Images captured on Incucyte S3 live-cell imager. […] For all panels, n=4 images in six independent wells were quantified. Data represented as mean values±SEM.
(§3) Strategy 1: A crystal structure of the CSF1R receptor bound to an antagonist (PMID: 31434879) to predict amino acid substitutions that may sterically hinder the binding of CSF1R antagonists while not impairing the normal binding of ATP into the same binding pocket. The crystal structure of PLX5622 bound to human CSF1R was obtained and the ATP binding pocket was examined (FIG. 7A). Through molecular modeling single amino acid changes were predicted that would likely impair the binding of PLX5622 or PLX3397 or other CSF1R antagonists while not disrupting normal ATP binding to CSF1R. […] Other mutations could also be explored to prevent binding (FIG. 7D). […] The resulting iPSCs were then differentiated into microglia and exposed to varying concentrations of either PLX3397 or PLX5622. To detect microglial cell death (apoptosis) a caspase-3/7 fluorogenic reporter was used. […] FIG. 4F provided representative images of cell density (phase-contrast microscopy, 1st column) and fluorescent Caspase-3/7 activity (2nd column) across each dose of PLX3397 and PLX5622.
(§4) Resistance to each of the CSF1R inhibitors tested was quantified using a fluorogenic caspase 3/7 detector (Essen BioScience) and time-lapse imaging over 24 hours.
(§5) Cell death assay: iPS-microglia were plated at 70K cells per 96-well plate (6 wells per line per condition). At time 0, all microglia were treated with IncuCyte Caspase-3/7 Green Apoptosis Assay Reagent 1:1000. Cells were maintained in the described medium: fresh complete medium+0.1% DMSO, complete media+250 nM PLX3397, complete medium+500 nM PLX3397, complete medium+[…] PLX3397, complete medium+250 nM PLX5622, complete medium+500 nM PLX5622, complete medium +[…] PLX5622, complete medium+250 nM Edicotinib, complete medium+500 nM Edicotinib, complete medium +1 μm Edicotinib, complete medium+250 nM BLZ945, complete medium+500 nM BLZ945, complete medium +1 μm BLZ945. Four 20× images per well were collected every hour for 24 hours. Using IncuCyte 2020B software, image masks for phase confluence (visually gated out apoptotic cells) as well as caspase 3/7 signal (green) were generated. Graphs display caspase normalized to phase confluence, completed with 3 lines: WT, G795A, G795C (see FIGS. 4A, 4B, 4C, 4D, and 4E).

[3] = test system: wild-type (WT) unedited human iPSC-microglia; assay: Cell death assay (fluorogenic caspase 3/7, IncuCyte time-lapse imaging), WT microglia; assay type: cell-based; conditions: 250 nM, 500 nM, 1 μm, 24 hours, compared to DMSO control
Excerpt: as §2, §3, §4, §5

G795C iPSC-microglia = assay: Cell death assay (fluorogenic caspase 3/7, IncuCyte time-lapse imaging), G795C microglia; assay type: cell-based, human; conditions: 250 nM, 500 nM, 1 μm, 24 hours, compared to DMSO control
Excerpt: as §2, §3, §4, §5

[4] = test system: wild-type (WT) iPSC-microglia; assay: LIVE/DEAD two-color viability/cytotoxicity, WT microglia; assay type: cell-based, human; conditions: 500 nM or 1 uM, 24 hours
Procedure: as §1

WT microglia = assay: RNA-seq transcriptomic response to PLX5622, WT microglia; assay type: cell-based, human; conditions: 24-hour treatment, compared to DMSO-treated cells
Excerpt: (§6) FIGS. 2A, 2B, 2C, 2D, 2E, and 2F show selected CSF1R mutations have little effect on transcriptomic signature while simultaneously imparting resistance to PLX5622.

[5] = test system: MUT1 (i.e., G795A) microglia; assay: RNA-seq transcriptomic response to PLX5622, MUT1 (G795A) microglia; assay type: cell-based, human; conditions: 24-hour treatment, compared to DMSO-treated cells
Excerpt: as §6

[6] = test system: MUT2 (i.e., G795C) microglia; assay: RNA-seq transcriptomic response to PLX5622, MUT2 (G795C) microglia; assay type: cell-based, human; conditions: 24-hour treatment, compared to DMSO-treated cells
Excerpt: as §6

G795A xMGs = assay: PLX3397 chow treatment of xenotransplanted mice, G795A xMGs (IBA-1/Ku80/Ki67 immunohistochemistry); assay type: in vivo, human; conditions: 600 mg/kg of PLX3397 in rodent chow ad libitum, 4 weeks
Excerpt: (§7) FIGS. 11A, 11B, 11C, 11D, 11E, 11F, 11G, 11H, 11I, and 11J show G795A iPSC-derived microglia are resistant to CSF1R […] treatment and enable robust engraftment of human microglia within the adult mammalian brain. Xenotransplantation-compatible mice received bilateral stereotactic intrahippocampal injections of 500,000 iPSC-derived human microglia (xMGs) at 2-months of age. Mice received xMGs differentiated from either a homozygous CSF1R-resistant G795A human iPSC line or an isogenic unmodified Wild-Type human i PSC. At fours of age, mice were treated with 600 mg/kg of PLX3397 in rodent chow ad libitum for 4 weeks duration. Mice were then sacrificed, and half-brains were examined by fluorescent immunohistochemistry and confocal microscopy.

wild-type human xMGs = assay: PLX3397 chow treatment of xenotransplanted mice, wild-type xMGs (IBA-1/Ku80/Ki67 immunohistochemistry); assay type: in vivo, mouse; conditions: 600 mg/kg of PLX3397 in rodent chow ad libitum, 4 weeks
Excerpt: as §7

Compound | cell death (percent of live versus dead cells) (G795A iPSC-microglia [1]) | caspase 3/7 levels (cell death / apoptosis) (G795A iPSC-microglia [2]) | caspase 3/7 levels (cell death / apoptosis) [3] | caspase 3/7 levels (cell death / apoptosis) (G795C iPSC-microglia) | cell death (percent of live versus dead cells) [4] | transcriptomic alterations (FDR≤0.05; log2(FC)≥±1) (WT microglia) | transcriptomic alterations (FDR≤0.05; log2(FC)≥±1) [5] | transcriptomic alterations (FDR≤0.05; log2(FC)≥±1) [6] | survival / expansion of transplanted human xMGs in mouse brain (G795A xMGs) | survival of transplanted human xMGs in mouse brain (wild-type human xMGs)
CNC(=O)c1cc(Oc2ccc3nc(N[C@@H]4CCCC[C@H]4O)sc3c2)ccn1 [BLZ945] | little-to-no cell death | no significant increase in caspase levels | significant levels of increased caspase | no significant increase in caspase levels | substantial cell death |  |  |  |  | 
COc1ncc(F)cc1CNc1ccc(Cc2c[nH]c3ncc(C)cc23)c(F)n1 [PLX5622] | little-to-no cell death | complete resistance to cell death; also recorded: no significant increase in caspase levels | robust dose-dependent induction of apoptosis; also recorded: significant levels of increased caspase | complete resistance to cell death; also recorded: no significant increase in caspase levels | substantial cell death | induced significant transcriptomic alterations | failed to significantly alter gene expression | failed to significantly alter gene expression |  | 
CC1(C)CC=C(c2nc(C3CC(C)(C)OC(C)(C)C3)ccc2NC(=O)c2nc(C#N)c[nH]2)CC1 [Edicotinib] | little-to-no cell death | no significant increase in caspase levels | significant levels of increased caspase | no significant increase in caspase levels | substantial cell death |  |  |  |  | 
FC(F)(F)c1ccc(CNc2ccc(Cc3c[nH]c4ncc(Cl)cc34)cn2)cn1 [PLX3397] | little-to-no cell death | complete resistance to cell death; also recorded: no significant increase in caspase levels | robust dose-dependent induction of apoptosis; also recorded: significant levels of increased caspase | complete resistance to cell death; also recorded: no significant increase in caspase levels | substantial cell death |  |  |  | proliferate and expand from the initial injection sites | only a handful of wild-type human xMGs survive
